The values below come from patent US20250353891A1 (MEDIMMUNE LIMITED, priority 2022, published 2025).

Read-outs that look alike come from different tables or passages of the source. Starred links: 1 amine or outer side, 2 acyl side, 3 side chain; linkers in the order of their positions; H or OH if unused. Non-standard residues stand in square brackets, D forms with d. Residues, ends and D or L forms follow the SMILES beside them. Groups on a side chain read outwards from the residue. *: point of attachment. C18 diacid = O=C(O)CCCCCCCCCCCCCCCCC(=O)*; γGlu = O=C(O)[C@H](CCC(=O)[*:2])N[*:1]; αMeF = C[C@](N)(Cc1ccccc1)C(=O)O; AEEA = NCCOCCOCC(=O)O; Aib = CC(C)(N)C(=O)O

Test [1] addresses human GLP-1 receptor (hGLP-1R) (Homo sapiens, UniProt P43220). Description: cAMP production (HTRF) in CHO cells expressing hGLP-1R. Also on record: expressed in transfected cells. In kind it is cell-based. Particulars: for EC50: Table 6, peptides modified at position 17, cAMP in CHO hGLP-1R cells, geometric mean; for % Relative Potency Ratio: Table 6, % GLP-1R activity relative to GLP-1 / % GlucR activity relative to glucagon. The method in brief: (§1)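 Cells were resuspended in assay buffer at batch-optimized density, typically 1×10^5 cells/mL for hGLP-1R and 2×10^5 cells/mL for hGCGR. After 30 min incubation at room temperature with compound, cAMP was measured by two-step HTRF. EC50 values came from 4-parameter logistic fits of % Delta F.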

Test [2] addresses human glucagon receptor (hGCGR) (Homo sapiens, UniProt P47871). Description: cAMP production (HTRF) in CHO cells expressing hGCGR. Set-up: expressed in transfected cells. Particulars: Table 6, peptides modified at position 17, cAMP in CHO hGCGR cells, geometric mean. The format is cell-based. The method in brief:
as §1

human GLP-1 receptor (hGLP-1R), sequence (P43220 24-463): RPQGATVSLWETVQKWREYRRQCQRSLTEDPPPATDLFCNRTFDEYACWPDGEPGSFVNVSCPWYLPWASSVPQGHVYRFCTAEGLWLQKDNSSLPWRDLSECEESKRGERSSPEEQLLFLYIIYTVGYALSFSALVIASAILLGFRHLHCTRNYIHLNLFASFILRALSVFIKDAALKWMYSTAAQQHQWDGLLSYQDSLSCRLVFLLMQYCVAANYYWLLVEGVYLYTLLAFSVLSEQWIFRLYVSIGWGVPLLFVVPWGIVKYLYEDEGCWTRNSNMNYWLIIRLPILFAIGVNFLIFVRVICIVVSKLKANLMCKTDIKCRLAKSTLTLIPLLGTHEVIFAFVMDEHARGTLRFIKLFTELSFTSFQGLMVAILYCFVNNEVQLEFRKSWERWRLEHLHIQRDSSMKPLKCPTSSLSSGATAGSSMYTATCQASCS
human glucagon receptor (hGCGR), sequence (P47871 26-477): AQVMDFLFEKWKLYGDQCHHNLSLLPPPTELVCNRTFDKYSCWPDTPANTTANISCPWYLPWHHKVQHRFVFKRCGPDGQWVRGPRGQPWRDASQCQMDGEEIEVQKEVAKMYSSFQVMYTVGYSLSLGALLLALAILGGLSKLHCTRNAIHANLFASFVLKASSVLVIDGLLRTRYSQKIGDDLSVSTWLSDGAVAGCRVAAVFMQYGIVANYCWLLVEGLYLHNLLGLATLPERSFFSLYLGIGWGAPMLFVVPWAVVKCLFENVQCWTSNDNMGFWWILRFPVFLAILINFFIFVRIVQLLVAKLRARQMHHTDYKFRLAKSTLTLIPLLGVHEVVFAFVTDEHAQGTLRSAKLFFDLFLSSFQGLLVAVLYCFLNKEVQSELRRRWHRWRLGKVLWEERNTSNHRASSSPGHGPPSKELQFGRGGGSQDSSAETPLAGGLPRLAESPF

`CC(C)C[C@H](NC(=O)[C@H](C)NC(=O)[C@H](CCCNC(=N)N)NC(=O)[C@H](CCCCNC(=O)COCCOCCNC(=O)COCCOCCNC(=O)CC[C@H](NC(=O)CCCCCCCCCCCCCCCCC(=O)O)C(=O)O)NC(=O)[C@H](CO)NC(=O)[C@H](CC(=O)O)NC(=O)[C@H](CC(C)C)NC(=O)[C@](C)(Cc1ccccc1)NC(=O)[C@H](CCCCN)NC(=O)[C@H](CO)NC(=O)[C@@H](NC(=O)[C@H](CC(=O)O)NC(=O)[C@H](CO)NC(=O)[C@@H](NC(=O)[C@H](Cc1ccccc1)NC(=O)[C@@H](NC(=O)CNC(=O)[C@H](CCC(N)=O)NC(=O)C(C)(C)NC(=O)[C@@H](N)Cc1c[nH]cn1)[C@@H](C)O)[C@@H](C)O)C(C)C)C(=O)N[C@@H](CC(=O)O)C(=O)N[C@@H](Cc1ccccc1)C(=O)N[C@H](C(=O)N[C@@H](CCCNC(=N)N)C(=O)N[C@@H](Cc1c[nH]c2ccccc12)C(=O)N[C@@H](CC(C)C)C(=O)N[C@@H](CC(C)C)C(=O)NC(C)(C)C(=O)N[C@H](C(=O)N[C@@H](CCC(=O)O)C(=O)O)[C@@H](C)O)C(C)C` [Peptide 168] (H-H[Aib]QGTFTSDVSK[αMeF]LDSK([AEEA-AEEA-γGlu-C18 diacid])RALDFVRWLL[Aib]TE-OH; N-terminus assumed): the EC50 in test [1] (read-out: hGLP-1R EC50) amounted to 448 pM; in test [2] (read-out: hGluc-R EC50), 886 pM. The “% Relative Potency Ratio” value in test [1] is given as 3.9.

For `CC(C)C[C@H](NC(=O)[C@H](CCC(=O)O)NC(=O)[C@H](CC(C)C)NC(=O)[C@](C)(Cc1ccccc1)NC(=O)[C@H](CCCCN)NC(=O)[C@H](CO)NC(=O)[C@@H](NC(=O)[C@H](CC(=O)O)NC(=O)[C@H](CO)NC(=O)[C@@H](NC(=O)[C@H](Cc1ccccc1)NC(=O)[C@@H](NC(=O)CNC(=O)[C@H](CCC(N)=O)NC(=O)C(C)(C)NC(=O)[C@@H](N)Cc1c[nH]cn1)[C@@H](C)O)[C@@H](C)O)C(C)C)C(=O)N[C@@H](CCCCNC(=O)COCCOCCNC(=O)COCCOCCNC(=O)CC[C@H](NC(=O)CCCCCCCCCCCCCCCCC(=O)O)C(=O)O)C(=O)N[C@@H](CCCNC(=N)N)C(=O)N[C@@H](C)C(=O)N[C@@H](CCC(N)=O)C(=O)N[C@@H](CC(=O)O)C(=O)N[C@@H](Cc1ccccc1)C(=O)N[C@H](C(=O)N[C@@H](CCCNC(=N)N)C(=O)N[C@@H](Cc1c[nH]c2ccccc12)C(=O)N[C@@H](CC(C)C)C(=O)N[C@@H](CC(C)C)C(=O)NC(C)(C)C(=O)N[C@H](C(=O)N[C@@H](CCC(=O)O)C(=O)O)[C@@H](C)O)C(C)C` [Peptide 169] (H-H[Aib]QGTFTSDVSK[αMeF]LELK([AEEA-AEEA-γGlu-C18 diacid])RAQDFVRWLL[Aib]TE-OH; N-terminus assumed), the concentration for a half-maximal effect (EC50) came out at 210 pM in test [1] (hGLP-1R EC50 (pM)) and 1400 pM in test [2] (hGluc-R EC50 (pM)).

In the case of `CC(C)C[C@H](NC(=O)[C@H](Cc1c[nH]c2ccccc12)NC(=O)[C@H](CCCNC(=N)N)NC(=O)[C@@H](NC(=O)[C@H](Cc1ccccc1)NC(=O)[C@H](CC(=O)O)NC(=O)[C@H](CCC(N)=O)NC(=O)[C@H](C)NC(=O)[C@H](CCCNC(=N)N)NC(=O)[C@H](CCCCNC(=O)COCCOCCNC(=O)COCCOCCNC(=O)CC[C@H](NC(=O)CCCCCCCCCCCCCCCCC(=O)O)C(=O)O)NC(=O)[C@H](CCC(=O)O)NC(=O)[C@H](CC(=O)O)NC(=O)[C@H](CC(C)C)NC(=O)[C@](C)(Cc1ccccc1)NC(=O)[C@H](CCCCN)NC(=O)[C@H](CO)NC(=O)[C@@H](NC(=O)[C@H](CC(=O)O)NC(=O)[C@H](CO)NC(=O)[C@@H](NC(=O)[C@H](Cc1ccccc1)NC(=O)[C@@H](NC(=O)CNC(=O)[C@H](CCC(N)=O)NC(=O)C(C)(C)NC(=O)[C@@H](N)Cc1c[nH]cn1)[C@@H](C)O)[C@@H](C)O)C(C)C)C(C)C)C(=O)N[C@@H](CC(C)C)C(=O)NC(C)(C)C(=O)N[C@H](C(=O)N[C@@H](CCC(=O)O)C(=O)O)[C@@H](C)O` [Peptide 170] (H-H[Aib]QGTFTSDVSK[αMeF]LDEK([AEEA-AEEA-γGlu-C18 diacid])RAQDFVRWLL[Aib]TE-OH; N-terminus assumed), the figures for the concentration for a half-maximal effect (EC50) in test [1] (read-out: hGLP-1R EC50) and in test [2] (read-out: hGluc-R EC50) were 148 pM and 836 pM, respectively. Moreover, in test [1], the “% Relative Potency Ratio” value amounted to 11.2.

As to `CC(C)C[C@H](NC(=O)[C@H](Cc1c[nH]c2ccccc12)NC(=O)[C@H](CCCNC(=N)N)NC(=O)[C@@H](NC(=O)[C@H](Cc1ccccc1)NC(=O)[C@H](CC(=O)O)NC(=O)[C@H](CCC(N)=O)NC(=O)[C@H](C)NC(=O)[C@H](CCCNC(=N)N)NC(=O)[C@H](CCCCNC(=O)COCCOCCNC(=O)COCCOCCNC(=O)CC[C@H](NC(=O)CCCCCCCCCCCCCCCCC(=O)O)C(=O)O)NC(=O)[C@H](CO)NC(=O)[C@H](CC(=O)O)NC(=O)[C@H](CC(C)C)NC(=O)[C@](C)(Cc1ccccc1)NC(=O)[C@H](CCCCN)NC(=O)[C@H](CO)NC(=O)[C@@H](NC(=O)[C@H](CC(=O)O)NC(=O)[C@H](CO)NC(=O)[C@@H](NC(=O)[C@H](Cc1ccccc1)NC(=O)[C@@H](NC(=O)CNC(=O)[C@H](CCC(N)=O)NC(=O)C(C)(C)NC(=O)[C@@H](N)Cc1c[nH]cn1)[C@@H](C)O)[C@@H](C)O)C(C)C)C(C)C)C(=O)N[C@@H](CCC(=O)O)C(=O)NC(C)(C)C(=O)N[C@H](C(=O)N[C@@H](CCC(=O)O)C(=O)O)[C@@H](C)O` [Peptide 171] (H-H[Aib]QGTFTSDVSK[αMeF]LDSK([AEEA-AEEA-γGlu-C18 diacid])RAQDFVRWLE[Aib]TE-OH; N-terminus assumed), the concentration giving a half-maximal response (EC50) in test [1] (read-out: hGLP-1R EC50) was determined as 107 pM; in test [2] (read-out: hGluc-R EC50), 376 pM. Moreover, the “% Relative Potency Ratio” value in test [1] stood at 7.0.

Take `CC(C)C[C@H](NC(=O)[C@H](Cc1c[nH]c2ccccc12)NC(=O)[C@H](CCCNC(=N)N)NC(=O)[C@@H](NC(=O)[C@H](Cc1ccccc1)NC(=O)[C@H](CC(=O)O)NC(=O)[C@H](CCC(N)=O)NC(=O)[C@H](C)NC(=O)[C@H](CCCNC(=N)N)NC(=O)[C@H](CCCCNC(=O)COCCOCCNC(=O)COCCOCCNC(=O)CC[C@H](NC(=O)CCCCCCCCCCCCCCCCC(=O)O)C(=O)O)NC(=O)[C@H](CO)NC(=O)[C@H](CCC(=O)O)NC(=O)[C@H](CC(C)C)NC(=O)[C@](C)(Cc1ccccc1)NC(=O)[C@H](CCCCN)NC(=O)[C@H](CO)NC(=O)[C@@H](NC(=O)[C@H](CC(=O)O)NC(=O)[C@H](CO)NC(=O)[C@@H](NC(=O)[C@H](Cc1ccccc1)NC(=O)[C@@H](NC(=O)CNC(=O)[C@H](CCC(N)=O)NC(=O)C(C)(C)NC(=O)[C@@H](N)Cc1c[nH]cn1)[C@@H](C)O)[C@@H](C)O)C(C)C)C(C)C)C(=O)N[C@@H](CC(C)C)C(=O)NC(C)(C)C(=O)N[C@H](C(=O)N[C@@H](CCC(=O)O)C(=O)O)[C@@H](C)O` [Peptide 172] (H-H[Aib]QGTFTSDVSK[αMeF]LESK([AEEA-AEEA-γGlu-C18 diacid])RAQDFVRWLL[Aib]TE-OH; N-terminus assumed): the results for the EC50 in test [1] (read-out: hGLP-1R EC50) and in test [2] (read-out: hGluc-R EC50) were 213 pM and 1270 pM, respectively. For the same compound, the “% Relative Potency Ratio” value in test [1] was determined as 11.8.
